Entries after “also recorded” stand apart in the source; their conditions may differ.
Columns and labels:
TNFalpha = experiment: Inhibition of lipopolysaccharide-induced synthesis and liberation of TNFalpha in human mononuclear blood cells (sandwich enzyme immuno test); format: cell-based; conditions: for activity at 10 µM: 0.01 mmol/l; for activity at 100 µM: 0.1 mmol/l; for inhibitory effect on the synthesis and liberation of cytokines from human blood cells / effect on the TNFalpha level: in words; for effect on the TNFalpha level: experiments in Tab. 1
Description: The cell fraction which was visible as a white ring at the phase boundary was removed with the aid of a syringe, diluted 1:1 (v/v) with PM-16 buffer (from Serva Feinbiochemica GmbH & Co. KG, Heidelberg) and then centrifuged once again, as above, for 10 min. […] Using a cell counter (type IT, from Coulter Diagnostics, Krefeld), the cell suspension, which is composed of about 90% lymphocytes and 10% monocytes, was adjusted to about 5 million cells/ml. Cell viability was monitored before and after the inhibition experiments using the known lactate dehydrogenase method.
The synthesis and liberation of cellular TNFalpha was induced by adding a solution of 500 ng of lipopolysaccharide (Salmonella abortus equi, Sigma GmbH, Deisenhofen) in 0.01 ml of dimethyl sulfoxide/water (1:10, v/v) to 0.48 ml of the above-described cell fraction. At the same time, a solution of leflunomide or leflunomide metabolite in 0.01 ml of dimethylsulfoxide (for the final concentration in each case, see Tab. 1) was added to the cell fraction and the mixture was left at 37° C. for 20 h in a commercially available incubator. After cooling down to 0° C., the samples were centrifuged for 1 min. in a bench centrifuge. and in each case 0.025 ml aliquots of the supernatant were examined for their TNFalpha content using a "sandwich" enzyme immuno test kit (from Biermann GmbH, Bad Nauheim) in accordance with the manufacturer's instructions. The control values were determined without the addition of leflunomide or its metabolites and set at 100%. In particular, any possible influence of dimethylsulfoxide on the TNFalpha level was excluded by appropriate comparative measurements.

mononuclear cells = experiment: Metabolism of leflunomide in the test sample (mononuclear cell fraction), HPLC; format: in vitro ADME, human; conditions: in words; isolated mononuclear blood cells
[1] = as above; format: in vitro ADME, human; conditions: human, mononuclear cells; mononuclear cell fraction, 37° C., HPLC; read-out: half life of metabolism of leflunomide to its metabolites (converted)
[2] = Homo sapiens, LPS 500 ng, 37° C., 20 h, control = 100%, read-out: TNFalpha in the supernatant % +/- standard deviation

## C/C(O)=C(\C#N)C(=O)Nc1ccc(C(F)(F)F)cc1 [Leflunomide metabolite, N-(4-trifluoromethylphenyl)-2-cyano-3-hydroxycrotonamide]
TNFalpha; [2]
  activity at 10 µM: 102 ± 12%
  activity at 100 µM: 105%
TNFalpha
  inhibitory effect on the synthesis and liberation of cytokines from human blood cells: does not exhibit this advantageous effect
  effect on the TNFalpha level: practically no effect on the TNFalpha level

## Cc1oncc1C(=O)Nc1ccc(C(F)(F)F)cc1 [Leflunomide, N-(4-trifluoromethylphenyl)-5-methylisoxazole-4-carboxamide]
Mononuclear cells
  metabolism of leflunomide under the experimental conditions: did not, to any appreciable extent, metabolize; also recorded: only very slowly; also recorded: no appreciable metabolism
[1]
  half-life: ~10 h
TNFalpha; [2]
  activity at 10 µM: 100 ± 15%
  activity at 100 µM: 28 ± 5%
TNFalpha; Homo sapiens, 0.05 mmol/l, LPS 500 ng, 37° C., 20 h, control = 100%, read-out: TNFalpha in the supernatant % +/- standard deviation
  activity at 50 µM: 35%
TNFalpha
  inhibitory effect on the synthesis and liberation of cytokines from human blood cells: strong inhibitory effect
  effect on the TNFalpha level: clearly lowered
